Reference: ChEMBL document CHEMBL5543137, “Design and Synthesis of Novel Ultralong-Acting Peptides as EDP-EBP Interaction Inhibitors for Pulmonary Fibrosis Treatment” (J Med Chem, 2024)
Active and inactive are the calls of the source. Starred links: 1 amine or outer side, 2 acyl side, 3 side chain; linkers in the order of their positions; H or OH if unused. Non-standard residues stand in square brackets, D forms with d. Residues, ends and D or L forms follow the SMILES beside them. *: point of attachment. C20 diacid = O=C(O)CCCCCCCCCCCCCCCCCCC(=O)*; γGlu = O=C(O)[C@H](CCC(=O)[*:2])N[*:1]; Iva = CC[C@](C)(N)C(=O)O; PEG2 = NCCOCCOCCC(=O)O

Experiments:
[1] = tested on: Mus musculus; assay: Antifibrotic activity against BLM-induced C57BL/6 mouse pulmonary fibrosis model assessed as reduction in mortality at 150 ug/kg, sc administered for 2 weeks starting from 7 days post BLM induction and measured after 21 days post BLM induction; assay type: functional, organism-based; conditions: dose 150.0 µg/kg
[2] = tested on: Mus musculus; assay: Antifibrotic activity against BLM-induced C57BL/6 mouse pulmonary fibrosis model assessed as downregulation of Timp1 gene expression in lung tissue at 150 ug/kg, sc administered for 2 weeks starting from 7 days post BLM induction and measured after 21 days post BLM induction by RT-qPCR assay; assay type: functional, organism-based; conditions: dose 150.0 µg/kg
[3] = tested on: Mus musculus; assay: Antifibrotic activity against BLM-induced C57BL/6 mouse pulmonary fibrosis model assessed as reduction in lung alpha-SMA expression at 240 ug/kg/day, sc administered for 2 weeks starting from 7 days post BLM induction and measured after 21 days post BLM induction by Western blotting analysis; assay type: functional, organism-based; conditions: dose 240.0 µg/kg/day
[4] = tested on: Mus musculus; assay: Antifibrotic activity against BLM-induced C57BL/6 mouse pulmonary fibrosis model assessed as reduction in ECM deposition in lungs at 30 to 240 ug/kg, sc administered for 2 weeks starting from 7 days post BLM induction and measured after 21 days post BLM induction; assay type: functional, organism-based; conditions: dose 30-240 µg/kg
[5] = tested on: TC-1; assay: Inhibition of EBP signaling pathway in TGFalpha induced mouse TC-1 cells assessed as reduction in AKT phosphorylation at 10 uM incubated for 24 hrs by Western blotting analysis; assay type: cell-based
[6] = tested on: Mus musculus; assay: Antifibrotic activity against BLM-induced C57BL/6 mouse pulmonary fibrosis model assessed as reduction in vimentin gene expression at 240 ug/kg/day, sc administered for 2 weeks starting from 7 days post BLM induction and measured after 21 days post BLM induction by ScRNA-sequencing analysis; assay type: functional, organism-based; conditions: dose 240.0 µg/kg/day

CC[C@](C)(NC(=O)[C@@H](NC(=O)CCOCCOCCNC(=O)CCOCCOCCNC(=O)CC[C@H](NC(=O)CCCCCCCCCCCCCCCCCCC(=O)O)C(=O)O)C(C)C)C(=O)NCC(=O)N[C@@H](CO)C(=O)N1CCC[C@H]1C(=O)N[C@@H](CO)C(=O)N[C@@H](C)C(=O)N[C@@H](CCC(N)=O)C(=O)N[C@@H](CCC(=O)O)C(=O)N[C@@H](CCC(=O)O)C(=O)N[C@@H](C)C(=O)N[C@@H](CO)C(=O)N1CCC[C@H]1C(=O)N[C@@H](C)C(N)=O ({C20 diacid-γGlu-PEG2-PEG2}-V[Iva]GSPSAQEEASPA-NH2)
active: Activity [1] | Activity [2] | Activity [3] | Activity [4] | inhibition [5] | Activity [6]
